Where two headings read alike, the source gives them in different places.

The data set in a line: Pharmacokinetic determination in KM mice. It counts as in vivo. As to the method: Using KM mice as test animals, the pharmacokinetic behavior of the compounds in the examples in mouse plasma after administration by gavage at a dose of 10 mg/kg or by intravenous injection at a dose of 1 mg/kg was studied.
Male SPF-grade KM mice, with body weight (20 ± 2) g.
Drug preparation for the intragastric administration group: The drug concentration was prepared as 1 mg/mL, and the preparation solvent was Tween80 + 0.5% MC (v/v 1:99).
Drug preparation for the intravenous administration group: The drug concentration was prepared as 0.2 mg/mL, and the preparation solvent was 5% DMA + 5% Solutol HS-15 + 90% normal saline.
Intragastric administration group: The administration dose was 10 mg/kg, and the administration volume was 10 mL/kg.
Intravenous administration group: The administration dose was 1 mg/kg, and the administration volume was 5 mL/kg.
Intragastric administration: Blood was collected from mice before administration (0 h) and after administration at 0, 0.25 h, 0.5 h, 1 h, 2 h, 4 h, 6 h, 8 h, 10 h, and 24 h. Intravenous injection: Blood was collected before administration (0 h) and after administration at 5, 15, 30 min, 1, 2, 4, 6, 8, and 24 h.
Blood, approximately 0.1 mL, was collected by retro-orbital puncture and placed into EDTA-K2 anticoagulant tubes with labels. After blood collection, the tubes were gently and completely inverted three times to mix with the anticoagulant. The samples were then immediately placed in an ice-water bath and centrifuged at 4500 rpm for 10 min at 4°C. After centrifugation, the plasma was promptly aliquoted into EP tubes with corresponding labels and stored in a -80°C freezer.
After administration, 20 µL of mouse plasma was taken and placed into a 96-deep-well plate pre-filled with 20 µL of internal standard working solution. Methanol (400 µL) as the precipitating agent was added, vortexed for 10 min, and centrifuged at 4000 rpm for 15 min. A supernatant of 200 µL was transferred into another 96-deep-well plate pre-filled with 200 µL of ultrapure water, vortexed for 5 min, and centrifuged at 4000 rpm for 3 min. A supernatant of 5 µL was taken for LC-MS/MS analysis of plasma drug concentration.
The main pharmacokinetic parameters were calculated by WinNonlin 7.0, and the pharmacokinetic experimental results of mice are shown in Table 5 below. Table 5: Pharmacokinetic experimental results of mice

The mark [1] stands for this setting: male, KM, mouse, in vivo, iv, 1 mg/kg.
The mark [2] stands for this setting: male, KM, mouse, in vivo, po, 10 mg/kg.

On to `COc1c([C@H]2[C@H](C(=O)Nc3ccnc(C(N)=O)c3)O[C@@](C)(C(F)(F)F)[C@H]2C)ccc(F)c1F` [Reference compound, reference compound], for which the bioavailability (male, KM, mouse, in vivo) amounted to 44.2%. Further, under setting [1], the AUC(0-t) was 1020 ng·h/mL, the “Clearance CL/F” value turned out to be 15.222 mL/min/kg, the concentration peaked (Cmax) at 621 ng/mL and the Vd was found to be 2.48 L/kg. This molecule gave a half-life under setting [1] of 1.99 h. Under setting [2], the AUC(0-t) was determined as 4530 ng·h/mL, the peak level (Cmax) was 1330 ng/mL, the Tmax is 1 h and the half-life is 1.97 h.
`C[C@H]1[C@@H](c2ccc(F)c(F)c2OC2COC2)[C@H](C(=O)Nc2ccc(F)c(C(=N)NO)c2)O[C@@]1(C)C(F)(F)F` [Example 11]: the “Peak concentration Cmax/C0” value runs as follows: (KM mice, i.g. 10 mg/kg) 3413.33 ng/mL; (KM mice, i.v. 1 mg/kg) 612.43 ng/mL. In addition, the Vd (mouse, in vivo, iv, KM mice, i.v. 1 mg/kg, read-out: Apparent distribution Vss) was found to be 1.4 L/kg. Further, the AUC(0-t) is, setting by setting: (mouse, in vivo, iv, KM mice, i.v. 1 mg/kg, read-out: Area under the curve AUC0-t) 1060 ng·h/mL; (mouse, in vivo, po, KM mice, i.g. 10 mg/kg, read-out: Area under the curve AUC0-t) 7540 ng·h/mL. Besides, the half-life was 1.44 h (mouse, in vivo, iv, KM mice, i.v. 1 mg/kg, read-out: Half-life t1/2 (converted)) and 1.37 h (mouse, in vivo, po, KM mice, i.g. 10 mg/kg, read-out: Half-life t1/2 (converted)). Moreover, the bioavailability (mouse, in vivo, po, KM mice, i.g. 10 mg/kg vs i.v. 1 mg/kg, read-out: Bioavailability) came out at 71.4%. Further, the Tmax (mouse, in vivo, po, KM mice, i.g. 10 mg/kg, read-out: Time to peak Tmax) was found to be 0.25 h.
